Measurements reported in patent publication US20140329682A1, “METHOD OF CONTROLLING WEED IN A SUGAR CANE FIELD” (SUMITOMO CHEMICAL COMPANY, LIMITED, priority 2011, published 2014).

Tests used:
Type in all cases: in vivo
Amaranthus retroflexus [1] = assay: Herbicidal activity, soil surface spray on day of planting (Example 1); conditions: four weeks after treatment, scale 0 to 100
Method: (§1) The stem cutting from which a bud had grown to about 1 cm was selected, and the length of the stem cutting was adjusted to be 3 cm, 15 cm or 25 cm. The stem cutting of 3 cm or 15 cm had only one node, and the stem cutting of 25 cm had two nodes. A soil was packed into a 32 cm×25 cm×11 cm plastic pot, and seeds of Amaranthus retroflexus were seeded thereon. […] On the date when the stem cutting was planted, and after planting of the stem cutting, a water-diluted liquid of a flumioxazin water dispersible granule (water dispersible granule containing 51% floumioxazin, trade name: Valor SX, manufactured by Valent USA Corporation) (100 ppm or 250 ppm) was uniformly sprayed on the soil surface with a sprayer at an amount described in Table 1. Thereafter, the pot for a test was placed in a greenhouse. Four weeks after treatment with flumioxazin, phytotoxicity on sugar cane and the herbicidal activity against Amaranthus retroflexus were determined.

sugar cane [2] = assay: Phytotoxicity on sugar cane, soil surface spray on day of planting (Example 1); conditions: four weeks after treatment, scale 0 to 100
Method: as §1

Amaranthus retroflexus [3] = assay: Herbicidal activity, spray from upper side of pot, sugar cane at 4 to 5 leaves (Example 2); conditions: 125 g (active ingredient)/ha, four weeks after treatment, scale 0 to 100
Method: (§2) A sugar cane, a foliage of which had grown to about 4 to 5 leaves, was selected, and the length of the stem cutting was adjusted to be 8 cm, 15 cm or 25 cm. The 8 cm or 15 cm stem cutting had one node, and the 25 cm stem cutting had two nodes. A soil was packed into a 32 cm×25 cm×11 cm plastic pot, and seeds of Amaranthus retroflexus were seeded thereon. […] On the date when the stem cutting was planted, and after planting of the stem cutting, a water-diluted liquid of a flumioxazin water dispersible granule (water dispersible granule containing 51% flumioxazin, trade name: Valor SX, manufactured by Valent USA Corporation) (250 ppm) was uniformly sprayed with a sprayer from an upper side of the pot at an amount described in Table 2. Thereafter, the pot for a test was placed in a greenhouse. One week after treatment with flumioxazin, phytotoxicity on sugar cane was determined and, four weeks after treatment with flumioxazin, the herbicidal activity against Amaranthus retroflexus was determined.

Amaranthus retroflexus [4] = assay: Herbicidal activity, spray from upper side of pot, sugar cane at 4 to 5 leaves (Example 3); conditions: 70 g (active ingredient)/ha, four weeks after treatment, scale 0 to 100
Method: as §2, with “8” for “8 cm, 15”, “8” for “8 cm or 15”, “saflufenacil (140” for “a flumioxazin water dispersible granule (water dispersible granule containing 51% flumioxazin, trade name: Valor SX, manufactured by Valent USA Corporation) (250”, “3. The water-diluted liquid of saflufenacil was prepared by dissolving a predetermined amount of saflufenacil in acetone containing 2% (w/v) Tween 20, and diluting this solution with water so that the acetone concentration became 10% by volume.” for “2.”, “saflufenacil,” for “flumioxazin,”

sugar cane [5] = assay: Phytotoxicity on sugar cane, spray from upper side of pot, sugar cane at 4 to 5 leaves (Example 3); conditions: 70 g (active ingredient)/ha, one week after treatment, scale 0 to 100
Method: as §2, with “8” for “8 cm, 15”, “8” for “8 cm or 15”, “saflufenacil (140” for “a flumioxazin water dispersible granule (water dispersible granule containing 51% flumioxazin, trade name: Valor SX, manufactured by Valent USA Corporation) (250”, “3. The water-diluted liquid of saflufenacil was prepared by dissolving a predetermined amount of saflufenacil in acetone containing 2% (w/v) Tween 20, and diluting this solution with water so that the acetone concentration became 10% by volume.” for “2.”, “saflufenacil,” for “flumioxazin,”

C#CCN1C(=O)COc2cc(F)c(N3C(=O)C4=C(CCCC4)C3=O)cc21 [Flumioxazin, flumioxazin]
Herbicidal activity (Amaranthus retroflexus [1]; 50 g (active ingredient)/ha, stem cutting 3 cm): 100 | Herbicidal activity (Amaranthus retroflexus [1]; 50 g (active ingredient)/ha, stem cutting 15 cm): 100 | Herbicidal activity (Amaranthus retroflexus [1]; 50 g (active ingredient)/ha, stem cutting 25 cm): 100 | Herbicidal activity (Amaranthus retroflexus [1]; 125 g (active ingredient)/ha, stem cutting 3 cm): 100 | Herbicidal activity (Amaranthus retroflexus [1]; 125 g (active ingredient)/ha, stem cutting 15 cm): 100 | Herbicidal activity (Amaranthus retroflexus [1]; 125 g (active ingredient)/ha, stem cutting 25 cm): 100 | Phytotoxicity on sugar cane (sugar cane [2]; 50 g (active ingredient)/ha, stem cutting 3 cm (one node)): 0 | Phytotoxicity on sugar cane (sugar cane [2]; 50 g (active ingredient)/ha, stem cutting 15 cm (one node)): 5 | Phytotoxicity on sugar cane (sugar cane [2]; 50 g (active ingredient)/ha, stem cutting 25 cm (two nodes)): 20 | Phytotoxicity on sugar cane (sugar cane [2]; 125 g (active ingredient)/ha, stem cutting 3 cm (one node)): 0 | Phytotoxicity on sugar cane (sugar cane [2]; 125 g (active ingredient)/ha, stem cutting 15 cm (one node)): 5 | Phytotoxicity on sugar cane (sugar cane [2]; 125 g (active ingredient)/ha, stem cutting 25 cm (two nodes)): 20 | Herbicidal activity (Amaranthus retroflexus [3]; stem cutting 8 cm): 100 | Herbicidal activity (Amaranthus retroflexus [3]; stem cutting 15 cm): 100 | Herbicidal activity (Amaranthus retroflexus [3]; stem cutting 25 cm): 100

CC(C)N(C)S(=O)(=O)NC(=O)c1cc(-n2c(=O)cc(C(F)(F)F)n(C)c2=O)c(F)cc1Cl [Saflufenacil, saflufenacil]
Herbicidal activity (Amaranthus retroflexus [4]; stem cutting 8 cm): 100 | Herbicidal activity (Amaranthus retroflexus [4]; stem cutting 25 cm): 100 | Phytotoxicity on sugar cane (sugar cane [5]; stem cutting 8 cm (one node)): 0 | Phytotoxicity on sugar cane (sugar cane [5]; stem cutting 25 cm (two nodes)): 15
